{
  "source": "patent US12708677B2",
  "about": "“Contrast agents, methods for preparing contrast agents, and methods of imaging” (Georgia State University Research Foundation, Inc., priority 2008, dated 2026)",
  "key": {"CD-1 mice": {"tested_on": "CD-1 mice", "assay": "Mouse MR imaging", "format": "in vivo", "conditions": "3T or 9.4T", "method": "(§1) Mouse MR Imaging. Care of experimental animals was in accordance with institutional guidelines. CD-1 mice (25-30 g, four mice were imaged) were anesthetized with an isoflurane gas mixture. The anesthetized animal was positioned and stabilized with soft-supporting material (e.g., foam) in the scanner in the coil cradle and was kept warm during the MRI scan. The mice were scanned prior to the administration of any contrast agent (pre-contrast). Approximately 50 μl of Gd-CA1.CD2 (~1.2 mM) or Gd-DTPA (~300 mM) were injected into the animal via the tail vein. MR images were collected at different times (indicated). For T1 weighted imaging at 3T, spin echo sequence with TE/TR=15 ms/500 ms was employed. Rectangular Field of View (FOV) at 100/40 mm, an acquisition matrix of 196^2 and 1.1 mm slice thickness without gap were used. Images were collected from both transverse and coronal sections. The in-plane resolution of images was less than 0.5 mm after they were reconstructed to the matrix of 196^2. For T2 weighted imaging at 9.4T, MR images were recorded using a multi-echo Carr-Purcell-Meiboom-Gill (CPMG) sequence. The data were collected and processed by Dicomworks software. The MR signal intensity in several organs was ascertained by the average intensity in ROIs or points within the organs. Signal intensity for each organ was normalized to that of the leg muscle.\nas §1, with “Care” for “Mouse MR Imaging. Care”, “(e.g.” for “(e.g.,”"}, "[1]": {"assay": "In vitro r1 and r2 proton relaxivity", "format": "physicochemical", "conditions": "3.0 T; 50 μM designed agents, 100 μM Gd-DTPA"}, "[2]": {"assay": "In vitro r1 and r2 proton relaxivity", "format": "physicochemical", "method": "Determination of r1 and r2 Relaxivity Values, Relaxation times, T1 and T2, were determined at 1.5, 3, 9.4 Tesla using a Siemens whole-body MR system (1.5, 3T) or a Bruker MRI scanner (9.4T). T1 was determined using inversion recovery and T2 using a multi-echo Carr-Purcell-Meiboom-Gill (CPMG) sequence. The contrast agent samples (200 μl) with different concentrations were placed in eppendorf tubes. The tubes were placed on a tube rack, which was placed in MRI scanners for the measurement of relaxation times r1 and r2 were calculated based on r1(mM^−1 S^−1)=(1/T1s−1/T1c)/C and r2(mM^−1 S^−1)=(1/T2s−1/T2c)/C, where T1s and T2s are relaxation times with contrast agent and T1c and T2c are relaxation times without contrast agent. C is the concentration of contrast agent in mM (the measured Gd^3+ concentrations by ICP-MS). […]"}, "[3]": {"conditions": "cited from earlier work; for r1: based on references"}, "[4]": {"conditions": "standard curve, well-characterized chelators; cited from earlier work"}, "[5]": {"conditions": "used for the Gd^3+ buffer system; read-out: Gd^3+-binding affinity; cited from earlier work"}, "[6]": {"conditions": "literature; cited from earlier work"}, "[7]": {"conditions": "literature; cited from earlier work", "remark": "listed apart in the source"}, "[8]": {"conditions": "literature; cited from earlier work", "remark": "listed apart in the source"}, "[9]": {"assay": "Water coordination number by terbium life time luminescence", "format": "physicochemical", "method": "Measurement of Water Coordination Number by Terbium Life Time Luminescence. The number of water ligands coordinated to Gd^3+-CA1.CD2 complex was determined by measuring Tb^3+ luminescence decay in H2O or D2O. Tb^3+ excited state lifetime was measured using a fluorescence spectrophotometer (Photon Technology International, Inc.) with a 10 mm path length quartz cell at 22° ° C. Following excitation at 265 nm with a XenoFlash (Photon Technology International, Inc.), Tb^3+ emission was monitored at 545 nm in a time series experiment in both H2O and D2O systems. Luminescence decay lifetime was obtained by fitting the acquired data with a mono-exponential decay function. H2O in CA1.CD2 solution was replaced with D2O by lypholization and re-dissolved in D2O at least three times. A standard curve correlating the Δkobs with water number under our experimental conditions was established by using well-characterized chelators, such as EDTA (q=3), DTPA (q=1), NTA (q=5), and Aquo Tb^3+ (q=9) solution with R^2=0.997.^26,27 Water number coordinated to Tb^3+-CA1.CD2 complex was then obtained by fitting the acquired Δkobs value to the standard curve.\nThe numbers of water ligands coordinated to Gd^3+-CA1.CD2 and variants complex were determined by measuring Tb^3+ luminescence decay in H2O or D2O (Yang et al., 2008). Tb^3+ excited state lifetime was measured using a fluorescence spectrophotometer (Photon Technology International, Inc.) with a 10 mm path length quartz cell at 22° C. Following excitation at 265 nm with a XenoFlash (Photon Technology International, Inc.), Tb^3+ emission was monitored at 545 nm in a time series experiment in both H2O and D2O systems. Luminescence decay lifetime was obtained by fitting the acquired data with a mono-exponential decay function. H2O in CA1.CD2 solution was replaced with D2O by lypholization and re-dissolved in D2O at least three times. A standard curve correlating the Δkobs with water number under our experimental conditions was established by using well-characterized chelators, such as EDTA (q=3). DTPA (q=1), NTA (q=5), and Aquo Tb^3+ (q=9) solation with R^2=0.997.^26, 27 Water number coordinated to Tb^+-CA1.CD2 complex was then obtained by fitting the acquired Δkobs value to the standard curve."}, "[10]": {"assay": "Serum stability in human serum at 37° C., SDS-PAGE", "format": "in vitro ADME", "conditions": "24 hours at 37° C., SDS Page", "method": "Serum stability. […] The degradation of the protein (disappearance of 12 kDa protein band) was analyzed by SDS-PAGE and visualized by coomassie blue staining. In parallel, the degradation of the protein was also analyzed by immunoblot using antibodies OX54 or PabCD2. The identities of the 12 kDa bands as CA1.CD2 were always verified by immunobloting using antibody PabCD2.\n[…] The degradation of the protein (disappearance of 12 kDa protein band) was analyzed by SDS-PAGE and visualized by coomassie blue staining for protein and idiol staining for PEG moiety. In parallel, the degradation of the protein was also analyzed by immunoblot using antibodies OX54 or PabCD2. The identities of CA1.CD2 and pegylated variants were verified by immunoblotting using antibody PabCD2.and idiol staining."}, "DU-145": {"tested_on": "DU-145", "assay": "Uptake and internalization by confocal fluorescent microscope", "format": "cell-based", "method": "(§2) DU-145, PC-3 and H441 cells (8×10^4) were seeded in 4-well chambers (BD) at 37° C. overnight. In the second day, fresh medium was changed. Contrast agents were incubated with cells at different time point at 37° C. Subsequently, the cells were washed with PBS for three times and fixed with 3% formaldehyde for 15 minutes. After cells were rinsed in PBS for three times, 0.2% Triton X-100 was added to permeablize cells for 10 minutes. The cells were washed and four drops of Image-IT Fx signal enhancer (Invitrogen, CA) was applied in each sample to block unspecific binding. After three time washes, CD2 antibody was used as primary antibody. Goat anti-mouse IgG conjugated with Alexa Fluor 488 was used as detection antibody (Invitrogen, CA). The fluorescence image was acquired using 488 nm and UV lasers."}, "PC-3": {"tested_on": "PC-3", "assay": "Uptake and internalization by confocal fluorescent microscope", "format": "cell-based", "method": "as §2"}},
  "note": "Like-named read-outs stand apart in the source and are kept apart here.",
  "data": [
    {"molecule": "O=C([O-])CN(CCN(CC(=O)[O-])CC(=O)O)CCN(CC(=O)[O-])CC(=O)O.[Gd+3]", "note": "[Gd-DTPA, reference compound]", "values": [
      {"measurement": "contrast enhancement at the same concentration as Gd-CA1.CD2", "setting": "CD-1 mice", "result": "failed to exhibit contrast enhancements"},
      {"measurement": "contrast enhancement in T1 weighted imaging of samples", "setting": "[1]", "result": "did not lead to significant enhancement"},
      {"measurement": "r1", "setting": "[2]; B0 1.5 T", "result": 5.4, "unit": "mM⁻¹ s⁻¹"},
      {"measurement": "r1", "setting": "[2]; B0 3 T", "result": 4.2, "unit": "mM⁻¹ s⁻¹"}
    ]},
    {"molecule": "Albumin", "values": [
      {"measurement": "r1", "setting": "[3]; B0 0.25 T", "result": 11.5, "unit": "mM⁻¹ s⁻¹"}
    ]},
    {"molecule": "Gadomer-17", "values": [
      {"measurement": "r1", "setting": "[3]; B0 1.5 T", "result": 13, "unit": "mM⁻¹ s⁻¹"}
    ]},
    {"molecule": "O=C(O)CN(CC(=O)O)CC(=O)O", "note": "[NTA, nitrilotriacetic acid]", "values": [
      {"measurement": "water number q of standard chelators", "setting": "[4]", "result": 5},
      {"measurement": "Kd", "setting": "[5]", "result": 2.6, "unit": "pM"}
    ]},
    {"molecule": "O=C(O)CN(CCN(CC(=O)O)CC(=O)O)CC(=O)O", "note": "[EDTA]", "values": [
      {"measurement": "water number q of standard chelators", "setting": "[4]", "result": 3}
    ]},
    {"molecule": "O=C(O)CN(CCN(CC(=O)O)CC(=O)O)CCN(CC(=O)O)CC(=O)O", "note": "[DTPA]", "values": [
      {"measurement": "Log (KGd/KCa)", "setting": "[6]", "result": 11.70},
      {"measurement": "Metal binding constant (Log Ka) Ca^2+", "setting": "[6]", "result": 10.75},
      {"measurement": "water number q of standard chelators", "setting": "[4]", "result": 1},
      {"measurement": "relaxivity", "setting": "[3]; clinically used DTPA, field not stated", "result": 5, "unit": "mM⁻¹ s⁻¹"},
      {"measurement": "Log (KGd/KMg)", "setting": "[7]", "result": 4.25},
      {"measurement": "Log (KGd/KZn)", "setting": "[8]", "result": 4.17}
    ]},
    {"molecule": "troponin C [reference compound]", "values": [
      {"measurement": "hydration number (water number in the coordination shell)", "setting": "[9]", "result": 1.8}
    ]},
    {"molecule": "CA1.CD2-P40: CA1.CD2 PEGylated with PEG40 (conjugate) RDSGTVWGALGHGINLNIPNFQMTDDIDEVRWERGSTLVAEFKRKMKPFLKSGAFEILANGDLKIKNLTRDDSGTYNVTVYSTNGTRILNKALDLRILE", "values": [
      {"measurement": "stability in human serum", "setting": "[10]", "result": "remains intact"}
    ]},
    {"molecule": "CA1.CD2-521-Bom: Bom/GRP sequence grafted into CA1.CD2 (protein) RDSGTVWGALGHGIELNIPNFQMTDDIDEVRWERGSTLVAEFKRKMKPFLKSGGSGGGNQWAVGHLMGGSGGGAFEIDANGDLDIKNLTRDDSGTYNVTVYSTNGTRILNKALDLRILE", "values": [
      {"measurement": "uptake in GRPR positive DU-145 cells", "setting": "DU-145", "result": "uptake and internalization"},
      {"measurement": "uptake in GRPR positive PC-3 cells", "setting": "PC-3", "result": "uptake and internalization"}
    ]}
  ]
}
